One molecule from publication PMC3032545, “A c-di-GMP Effector System Controls Cell Adhesion by Inside-Out Signaling and Surface Protein Cleavage” (PLoS Biology, 2011) can be followed below.

In general, IC50 refers to the midpoint of a concentration-inhibition curve.

This test addresses T1, LapD (c-di-GMP receptor) with LapG (periplasmic protease, read-out) (Pseudomonas fluorescens, UniProt Q3KK31).
T1 construct: full-length native LapD and LapG in clarified Pf0-1 cell extracts; LapD mutants from plasmid pMQ72 in the lapD deletion strain; with Periplasmic cysteine protease LapG (transglutaminase-like cysteine peptidase, DUF920)
T1 sequence (Q3KK31 1-648): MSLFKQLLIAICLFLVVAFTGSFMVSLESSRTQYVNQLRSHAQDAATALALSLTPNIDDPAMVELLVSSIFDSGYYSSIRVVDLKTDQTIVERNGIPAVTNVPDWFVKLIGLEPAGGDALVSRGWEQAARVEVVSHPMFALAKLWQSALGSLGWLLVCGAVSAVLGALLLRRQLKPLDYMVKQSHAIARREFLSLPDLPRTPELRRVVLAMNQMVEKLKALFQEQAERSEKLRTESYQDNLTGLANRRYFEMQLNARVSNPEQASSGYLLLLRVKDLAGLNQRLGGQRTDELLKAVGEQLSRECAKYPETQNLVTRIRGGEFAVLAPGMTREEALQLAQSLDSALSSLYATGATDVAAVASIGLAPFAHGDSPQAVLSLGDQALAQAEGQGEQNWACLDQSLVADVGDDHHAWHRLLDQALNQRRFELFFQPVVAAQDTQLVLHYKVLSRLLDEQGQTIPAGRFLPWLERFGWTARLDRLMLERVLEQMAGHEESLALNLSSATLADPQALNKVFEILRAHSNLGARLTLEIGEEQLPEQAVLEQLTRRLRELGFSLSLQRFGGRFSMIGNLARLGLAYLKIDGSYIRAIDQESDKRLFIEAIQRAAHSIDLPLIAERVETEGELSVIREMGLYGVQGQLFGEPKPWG
T1 sequence (Q3KK32 50-251 partner): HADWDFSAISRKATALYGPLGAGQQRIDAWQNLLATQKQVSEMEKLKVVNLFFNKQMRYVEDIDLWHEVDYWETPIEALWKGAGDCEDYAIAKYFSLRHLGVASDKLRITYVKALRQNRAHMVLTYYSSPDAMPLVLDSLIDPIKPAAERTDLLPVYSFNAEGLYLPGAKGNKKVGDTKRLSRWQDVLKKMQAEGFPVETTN
Briefly: inhibition of LapG cleavage of N-Term-LapA in cell extract, anti-His Western blot densitometry. The format is biochemical. The conditions noted are these: LapD-dependent: c-di-GMP binds LapD EAL domain, not LapG; wild-type Pf0-1 extract; 30 pmol N-Term-LapA, 100 min, room temperature. (In western blotting, separated proteins are transferred to a membrane and probed.)

Each structure is given as a SMILES string.

`Nc1nc2c(ncn2[C@@H]2O[C@@H]3CO[P@](=O)(O)O[C@H]4[C@@H](O)[C@H](n5cnc6c(=O)[nH]c(N)nc65)O[C@@H]4CO[P@](=O)(O)O[C@H]3[C@H]2O)c(=O)[nH]1` [c-di-GMP]: the IC50 is 2300 ± 1100 nM.
